Laboratory results reported in publication PMC6934184, “Selective DNA-PKcs inhibition extends the therapeutic index of localized radiotherapy and chemotherapy” (The Journal of Clinical Investigation, 2019).

Biological target: T1, DYRK2 (Homo sapiens, UniProt Q92630)
T1 construct: purchased Thermo Fisher Scientific (Life Technologies) SelectScreen
Assay: SelectScreen LanthaScreen
Format: binding
Conditions: read-out: % displacement
How it was run: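 Percent values come from Thermo SelectScreen profiling of NU5455, combining activity and binding assays. CSF1R was run in Z'LYTE format at Km app ATP, and CAMK1 in Adapta format with ATP listed at 10.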

T1 sequence (Q92630 whole entry): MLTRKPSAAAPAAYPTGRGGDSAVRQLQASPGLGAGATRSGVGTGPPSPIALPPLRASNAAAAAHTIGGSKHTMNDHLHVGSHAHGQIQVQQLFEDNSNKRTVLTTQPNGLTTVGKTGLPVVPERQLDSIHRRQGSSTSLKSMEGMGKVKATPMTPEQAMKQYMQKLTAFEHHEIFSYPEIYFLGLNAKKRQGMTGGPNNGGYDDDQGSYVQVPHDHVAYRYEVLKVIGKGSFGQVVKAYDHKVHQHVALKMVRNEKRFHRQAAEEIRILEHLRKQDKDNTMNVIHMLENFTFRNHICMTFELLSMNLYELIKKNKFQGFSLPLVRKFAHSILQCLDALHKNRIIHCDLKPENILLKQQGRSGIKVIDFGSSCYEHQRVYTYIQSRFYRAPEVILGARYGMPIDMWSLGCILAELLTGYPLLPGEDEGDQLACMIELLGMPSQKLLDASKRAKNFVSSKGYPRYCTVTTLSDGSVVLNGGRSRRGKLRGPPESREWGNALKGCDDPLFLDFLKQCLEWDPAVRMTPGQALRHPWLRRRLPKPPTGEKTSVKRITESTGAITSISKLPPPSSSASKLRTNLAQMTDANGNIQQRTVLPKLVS

CN(C(=O)CN1CCOCC1)c1ccc2sc3c(-c4cccc5c(=O)cc(N6CC7CCC(C6)O7)oc45)cccc3c2c1 [NU5455]
inhibition at 1 µM: 5%
